Results published in BigSolDB 2.1.

Cc1ncc(CO)c(CO)c1O.Cl
solubility (mole fraction)
Details	278.15 K	283.15 K	288.15 K	293.15 K	298.15 K	303.15 K	308.15 K	313.15 K
in ethanol	0.000447	0.000484	0.000557	0.000651	0.000801	0.000989	0.00118	0.00143
in methanol	0.00221	0.00253	0.0028	0.00329	0.00373	0.00425	0.00486	0.00549
in water	0.0105	0.0123	0.0144	0.0168	0.0191	0.022	0.025	0.0286
